# Experimental data: BindingDB's records for doi:10.7270/Q2930RSV (Burnham Center For Chemical Genomics, 2012)
# Target: T1, Caspase-3 (Homo sapiens, UniProt P42574)
# T1 sequence (P42574 whole entry): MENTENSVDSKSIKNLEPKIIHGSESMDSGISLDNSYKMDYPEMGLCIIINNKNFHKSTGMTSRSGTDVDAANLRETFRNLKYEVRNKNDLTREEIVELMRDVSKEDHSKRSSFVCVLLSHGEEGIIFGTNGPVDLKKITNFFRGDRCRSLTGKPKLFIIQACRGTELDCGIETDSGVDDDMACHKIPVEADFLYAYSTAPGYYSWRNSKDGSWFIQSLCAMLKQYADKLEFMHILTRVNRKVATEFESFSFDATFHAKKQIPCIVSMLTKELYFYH
row,IC50,SMILES
1,> 100 µM,CCCCOc1cc(NCc2ccccc2)c2ncn(C(C)C)c2c1
2,1.09 µM,CC1(C)Cc2c(nn(-c3ccccc3)c(=N)c2C#N)CO1
3,> 100 µM,CC(C)(C)c1ccc(C(=O)NNc2cc(N3CCCCC3)nc(N3CCCCC3)n2)cc1
4,> 100 µM,NS(=O)(=O)c1ccc(CCNC(=O)COC(=O)c2ccc([N+](=O)[O-])o2)cc1
5,> 100 µM,CCC(=O)c1ccc(OCc2cn(CC(=O)c3ccc(O)cc3)nn2)cc1 [1-[4-[[1-[2-(4-hydroxyphenyl)-2-oxoethyl]triazol-4-yl]methoxy]phenyl]propan-1-one]
6,> 100 µM,"CCN(CC)c1ccc(NC2CC(=O)N(CCc3ccc(OC)cc3)C2=O)cc1 (stereo not drawn) [3-[4-(diethylamino)anilino]-1-[2-(4-methoxyphenyl)ethyl]pyrrolidine-2,5-dione]"
7,> 100 µM,"COC(=O)c1ccc(C)cc1C1CN=NC12Cc1cc(C)ccc1C2=O (stereo not drawn) [4-methyl-2-(6-methyl-3-oxo-4'-spiro[1H-indene-2,5'-3,4-dihydropyrazole]yl)benzoic acid methyl ester]"
8,> 100 µM,O=[N+]([O-])c1ccc(-n2[n-]c(=[N+]3CCOCC3)cc2O)cc1 [5-(4-morpholinyl)-2-(4-nitrophenyl)-4H-pyrazol-3-one]
9,> 100 µM,Cc1[nH]n(-c2ccccc2)c(=O)c1S(=O)(=O)c1ccccc1 [5-methyl-2-phenyl-4-(phenylsulfonyl)-1H-pyrazol-3-one]
10,> 100 µM,CN(C)c1ccc(NC(=O)c2ccc(Cn3cc([N+](=O)[O-])cn3)cc2)cc1 [MLS000727576]
11,> 100 µM,COc1ccc(NC(=O)NNc2cc(N3CCOCC3)nc(N3CCOCC3)n2)cc1 [MLS000765810]
12,> 100 µM,N#CC1(CCCN2CCCCC2)c2ccccc2CCc2ccccc21 [MLS001178552]
13,> 100 µM,O=C(COC(=O)c1ccc([N+](=O)[O-])s1)NCCc1ccccc1 [MLS002159124]
14,50.7 µM,"CN(C)c1cc(N=NCc2ccccc2)nc(N(C)C)n1 [N2,N2,N4,N4-tetramethyl-N6-[(phenylmethylidene)amino]pyrimidine-2,4,6-triamine]"
15,> 100 µM,"O=C(NNc1cc(N2CCCC2)nc(N2CCCC2)n1)c1ccc([N+](=O)[O-])cc1 [N'-(2,6-dipyrrolidin-1-ylpyrimidin-4-yl)-4-nitrobenzohydrazide]"
16,> 100 µM,"O=C(CCc1ccccc1)NNc1cc(N2CCCCC2)nc(N2CCCCC2)n1 [N'-[2,6-di(piperidin-1-yl)pyrimidin-4-yl]-3-phenylpropanehydrazide]"
17,> 100 µM,COc1ccc(-c2csc(CCn3[nH]c(C)cc3=O)n2)cc1 [SMR000347900]
18,> 100 µM,CC(NC(=O)COC(=O)c1ccc([N+](=O)[O-])s1)c1ccccc1 (stereo not drawn) [[2-oxo-2-(1-phenylethylamino)ethyl] 5-nitrothiophene-2-carboxylate]
